Test results from US20220324835A1 (Nurix Therapeutics, Inc., priority 2018, published 2022).

Key:
T-cells = test: In vivo activity: CD25 expression on CD4+ or CD8+ T-cells of mice stimulated with anti-CD3 antibody; settings: 2 μg anti-CD3 antibody, 24 hours
Procedure: A method of determining the pharmacodynamic profile of Cbl-b inhibitors was performed by dosing strains of mice with competent immune systems such as C57BL/6 or BALB/c with a Cbl-b inhibitor. The Cbl-b inhibitor was dissolved in a suitable formulation and administered by one of various routes such as intravenous (IV), intraperitoneal (IP), subcutaneous (SC), or oral (PO), at a suitable dose level and frequency (e.g. twice per day BID or thrice per day TID) as informed by prior pharmacokinetic and tolerability studies. Following administration of the Cbl-b inhibitor, T-cells and indirectly other immune cells (e.g. via cytokine production) were stimulated in vivo by administration of an anti-CD3 antibody or antigen-binding fragment thereof in PBS at defined amounts such as 2 μg or 10 μg per animal by routes such as IV or IP (See Hirsh et al., J. Immunol., 1989; Ferran, et al., Eur. J. Immunol., 1990). Additional study control arms included groups of mice treated with a vehicle formulation alone (i.e., formulation without the Cbl-b inhibitor and anti-CD3 antibody), a formulation containing the Cbl-b inhibitor alone, a formulation containing the anti-CD3 antibody alone, PBS alone, or combinations of these agents. The level of immune activation was then assessed by analysis of plasma cytokine levels and/or expression of activation markers on immune cells (e.g. T-cells). Blood or lymphoid organs (e.g. spleen) were collected at defined time points (e.g. 8 hours or 24 hours). Blood samples were processed to collect plasma for determination of cytokine levels using standard methods known in the art. Cytokines measured included IL-2, IFNγ, and TNFα. Additional blood samples and lymphoid tissues were processed for flow cytometric analysis of immune cells (e.g. T-cells) using standard methods to determine expression of cell type-specific markers and activation markers such as CD25 and/or CD69. Augmentation of immune stimulation by Cbl-b inhibitor administration was assessed by comparing the relative concentrations of cytokines in plasma, or the expression levels of activation markers on immune cells between appropriate groups (e.g. mice treated with Cbl-b inhibitor and 2 μg anti-CD3 antibody versus mice treated with vehicle and 2 μg anti-CD3 antibody).
Cbl-b inhibitors were tested to determine their ability to induce or enhance the level of cytokines (e.g. IL-2, IFNγ, and TNFα) in blood obtained from treated mice stimulated with an anti-CD3 antibody, which is indicative of modulation of the immune response. Cbl-b inhibitors were also tested to determine their ability to induce or enhance the expression of cell surface markers on T-cells (e.g. CD25 and/or CD69) isolated from treated mice stimulated with an anti-CD3 antibody, which is indicative of modulation of the immune response.
Readouts were reported as fold change over baseline. The fold change was calculated from the mean value of mice treated with Cbl-b inhibitor and 2 μg anti-CD3 antibody, with the baseline defined as the mean value of mice treated with vehicle and 2 μg anti-CD3 antibody. Increases in the percentage of cells with surface expression of CD25 on CD4+ T-cells or CD8+ T-cells greater than 1.5-fold over baseline at 24 hours were considered a positive response. Increases in the plasma concentration of IL-2, IFNγ, and TNFα greater than 1.5-fold over baseline at 8 hours post-stimulation were also considered a positive response (Table 8). Fold changes were ranked into bins according to their readouts as follows: A indicates >2.50, B indicates 2.01-2.50, C indicates 1.51-2.00, D indicates 1.00-1.50, and E indicates <1.00.

T-cell = test: IL-2 secretion from T-cells stimulated with anti-CD3 antibody alone (Biological Example 2); format: cell-based; settings: primary human total T-cells, read-out: IL-2 secretion, Anti-CD3 stimulation, fold change over baseline; for fold induction at 1 µM: 1 μM compound; for fold induction at 8 µM: 8 μM compound

Compound	CD4+ T-cell % CD25+ (T-cells; 45 mpk PO BID)	CD8+ T-cell % CD25+ (T-cells; 45 mpk PO BID)	CD4+ T-cell % CD25+ (T-cells; 90 mpk PO BID)	CD8+ T-cell % CD25+ (T-cells; 90 mpk PO BID)	CD4+ T-cell % CD25+ (T-cells; 180 mpk PO BID)	CD8+ T-cell % CD25+ (T-cells; 180 mpk PO BID)	CD4+ T-cell % CD25+ (T-cells; 45 mpk IP BID)	CD8+ T-cell % CD25+ (T-cells; 45 mpk IP BID)	CD4+ T-cell % CD25+ (T-cells; 135 mpk PO BID)	CD8+ T-cell % CD25+ (T-cells; 135 mpk PO BID)	fold induction at 1 µM (T-cell)	fold induction at 8 µM (T-cell)
C[C@H](c1cc2c(c(C(F)(F)F)c1)CN(c1cccc(C3([C@H](F)c4nncn4C)COC3)c1)C2=O)N1CCC2(CC2)C1 (stereo in doubt) [Example 575, 6-((R)-1-(5-Azaspiro[2.4]heptan-5-yl)ethyl)-2-(3-(3-((S)-fluoro(4-methyl-4H-1,2,4-triazol-3-yl)methyl)oxetan-3-yl)phenyl)-4-(trifluoromethyl)isoindolin-1-one]	C (C indicates 1.51-2.00)	D (D indicates 1.00-1.50)	A (A indicates >2.50)	C (C indicates 1.51-2.00)	A (A indicates >2.50)	C (C indicates 1.51-2.00)	–	–	–	–	–	–
C[C@H](Cc1nncn1C)c1cccc(NC(=O)c2cc(C3CC3)cc(C(F)(F)F)n2)c1 [Compound 191, (R)-4-cyclopropyl-N-(3-(1-(4-methyl-4H-1,2,4-triazol-3-yl)propan-2-yl)phenyl)-6-(trifluoromethyl)picolinamide]	–	–	D (D indicates 1.00-1.50)	D (D indicates 1.00-1.50)	B (B indicates 2.01-2.50)	D (D indicates 1.00-1.50)	C (C indicates 1.51-2.00)	D (D indicates 1.00-1.50)	D (D indicates 1.00-1.50)	D (D indicates 1.00-1.50)	–	–
CN1CC2CCC(C1)N2c1cc2c(c(C(F)(F)F)c1)CN(c1cccc(C3(Cc4nncn4C)COC3)c1)C2=O [Compound 386, 2-(3-(3-((4-Methyl-4H-1,2,4-triazol-3-yl)methyl)oxetan-3-yl)phenyl)-6-(3-methyl-3,8-diazabicyclo[3.2.1]octan-8-yl)-4-(trifluoromethyl)isoindolin-1-one]	–	–	–	–	–	–	–	–	C (C indicates 1.51-2.00)	D (D indicates 1.00-1.50)	–	–
Cn1cnnc1CC1(c2cccc(N3Cc4c(cc(CN5CC[C@H](F)C5)cc4C(F)(F)F)C3=O)c2)COC1 [Compound 410, 6-{[(3S)-3-fluoropyrrolidin-1-yl]methyl}-2-(3-{3-[(4-methyl-4H-1,2,4-triazol-3-yl)methyl]oxetan-3-yl}phenyl)-4-(trifluoromethyl)-2,3-dihydro-1H-isoindol-1-one]	–	–	D (D indicates 1.00-1.50)	D (D indicates 1.00-1.50)	D (D indicates 1.00-1.50)	D (D indicates 1.00-1.50)	–	–	D (D indicates 1.00-1.50)	D (D indicates 1.00-1.50)	> 0.201	> 0.201
Cn1cnnc1CC1(c2cccc(N3Cc4c(cc(CN5CC[C@@H](C#N)C5)cc4C(F)(F)F)C3=O)c2)COC1 [Compound 421, (R)-1-((2-(3-(3-((4-methyl-4H-1,2,4-triazol-3-yl)methyl)oxetan-3-yl)phenyl)-3-oxo-7-(trifluoromethyl)isoindolin-5-yl)methyl)pyrrolidine-3-carbonitrile]	–	–	E (E indicates <1.00)	E (E indicates <1.00)	E (E indicates <1.00)	E (E indicates <1.00)	–	–	E (E indicates <1.00)	E (E indicates <1.00)	0.101 to 0.15	> 0.201
Cn1cnnc1CC1(c2cccc(N3Cc4c(cc(CN5C[C@H]6C[C@H]6C5)cc4C(F)(F)F)C3=O)c2)COC1 [Compound 429, 6-(((1R,5S)-3-azabicyclo[3.1.0]hexan-3-yl)methyl)-2-(3-(3-((4-methyl-4H-1,2,4-triazol-3-yl)methyl)oxetan-3-yl)phenyl)-4-(trifluoromethyl)isoindolin-1-one]	–	–	–	–	–	–	–	–	D (D indicates 1.00-1.50)	D (D indicates 1.00-1.50)	> 0.201	> 0.201
Cn1cnnc1CC1(c2cccc(N3Cc4c(cc(CN5CCC[C@H](F)C5)cc4C(F)(F)F)C3=O)c2)COC1 [Compound 432, 6-{[(3S)-3-fluoropiperidin-1-yl]methyl}-2-(3-{3-[(4-methyl-4H-1,2,4-triazol-3-yl)methyl]oxetan-3-yl}phenyl)-4-(trifluoromethyl)-2,3-dihydro-1H-isoindol-1-one]	–	–	–	–	–	–	–	–	D (D indicates 1.00-1.50)	D (D indicates 1.00-1.50)	> 0.201	–
Cn1cnnc1C(F)(F)[C@](C)(F)c1cccc(N2Cc3c(cc(CN4CC[C@H](F)C4)cc3C(F)(F)F)C2=O)c1 [Compound 447, 6-(((S)-3-fluoropyrrolidin-1-yl)methyl)-2-(3-((R)-1,1,2-trifluoro-1-(4-methyl-4H-1,2,4-triazol-3-yl)propan-2-yl)phenyl)-4-(trifluoromethyl)isoindolin-1-one]	–	–	D (D indicates 1.00-1.50)	E (E indicates <1.00)	C (C indicates 1.51-2.00)	D (D indicates 1.00-1.50)	–	–	D (D indicates 1.00-1.50)	E (E indicates <1.00)	> 0.201	> 0.201
Cn1cnnc1CC1(c2cccc(N3Cc4c(cc(CN5CCC(C)(F)CC5)cc4C(F)(F)F)C3=O)c2)COC1 [Example 620, 6-((4-fluoro-4-methylpiperidin-1-yl)methyl)-2-(3-(3-((4-methyl-4H-1,2,4-triazol-3-yl)methyl)oxetan-3-yl)phenyl)-4-(trifluoromethyl)isoindolin-1-one]	–	–	D (D indicates 1.00-1.50)	D (D indicates 1.00-1.50)	D (D indicates 1.00-1.50)	E (E indicates <1.00)	–	–	D (D indicates 1.00-1.50)	E (E indicates <1.00)	–	–
C[C@@H]1CN(Cc2cc3c(c(C(F)(F)F)c2)CN(c2cccc(C4(Cc5nncn5C)COC4)c2)C3=O)CCO1 [Example 663b, (R)-2-(3-(3-((4-methyl-4H-1,2,4-triazol-3-yl)methyl)oxetan-3-yl)phenyl)-6-((2-methylmorpholino)methyl)-4-(trifluoromethyl)isoindolin-1-one]	D (D indicates 1.00-1.50)	D (D indicates 1.00-1.50)	–	–	–	–	–	–	C (C indicates 1.51-2.00)	D (D indicates 1.00-1.50)	–	–
Cn1cnnc1[C@@H](F)C1(c2cccc(N3Cc4c(cc(CN5CCC(F)CC5)cc4C(F)(F)F)C3=O)c2)COC1 [Example 670a, (S)-2-(3-(3-(fluoro(4-methyl-4H-1,2,4-triazol-3-yl)methyl)oxetan-3-yl)phenyl)-6-((4-fluoropiperidin-1-yl)methyl)-4-(trifluoromethyl)isoindolin-1-one]	–	–	–	–	–	–	–	–	B (B indicates 2.01-2.50)	D (D indicates 1.00-1.50)	–	–
Cn1cnnc1[C@H](F)C1(c2cccc(N3Cc4c(cc(CN5CCC(F)CC5)cc4C(F)(F)F)C3=O)c2)COC1 [Example 670b, (R)-2-(3-(3-(fluoro(4-methyl-4H-1,2,4-triazol-3-yl)methyl)oxetan-3-yl)phenyl)-6-((4-fluoropiperidin-1-yl)methyl)-4-(trifluoromethyl)isoindolin-1-one]	–	–	–	–	–	–	–	–	C (C indicates 1.51-2.00)	D (D indicates 1.00-1.50)	–	–
